The values below come from patent US20250136606A1, “MODULATORS OF TRPML, THEIR COMPOSITIONS AND METHODS OF USE” (Caraway Therapeutics, Inc., priority 2021, published 2025).

By EC50 is commonly meant the concentration that produces a half-maximal response.

Holding throughout (type): cell-based
Details in all cases: fluorescent calcium assay

Assay [1] addresses T1, TRPML3 (Homo sapiens, UniProt Q8TDD5).
T1 construct: expressed in transfected cells
T1 sequence (Q8TDD5 1-553): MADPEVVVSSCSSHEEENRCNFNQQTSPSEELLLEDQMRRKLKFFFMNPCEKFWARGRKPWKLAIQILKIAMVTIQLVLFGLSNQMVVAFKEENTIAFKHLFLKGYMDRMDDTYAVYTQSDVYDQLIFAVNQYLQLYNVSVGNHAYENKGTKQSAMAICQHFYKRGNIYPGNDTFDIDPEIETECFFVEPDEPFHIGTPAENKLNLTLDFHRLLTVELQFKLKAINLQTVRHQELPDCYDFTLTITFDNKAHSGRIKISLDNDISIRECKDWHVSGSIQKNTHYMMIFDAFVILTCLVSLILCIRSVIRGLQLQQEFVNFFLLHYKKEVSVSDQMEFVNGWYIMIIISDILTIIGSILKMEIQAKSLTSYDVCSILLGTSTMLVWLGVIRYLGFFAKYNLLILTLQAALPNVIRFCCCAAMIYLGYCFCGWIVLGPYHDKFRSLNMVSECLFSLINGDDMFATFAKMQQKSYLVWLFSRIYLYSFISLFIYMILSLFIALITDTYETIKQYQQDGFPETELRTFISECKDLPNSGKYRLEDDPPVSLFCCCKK
The experiment in a line: Fluorescent TRPML3 assay (performed as for TRPML1, substituting the TRPML3 subtype). The method, boiled down: (§1)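 Calcium-influx readout: Fluo4 fluorescence at 480/540 nm, normalised to positive and negative controls per plate, EC50 fitted by non-linear regression. Cells were HEK-293 Trex stable lines, channel expression induced overnight with 0.5 ug/mL doxycycline; tested at 20 micromolar down to 6 nanomolar final, half-log steps, triplicate.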

For assay [2], the target named is T2, TRPML2 (Homo sapiens, UniProt Q8IZK6).
T2 construct: expressed in transfected cells
T2 sequence (Q8IZK6 1-566): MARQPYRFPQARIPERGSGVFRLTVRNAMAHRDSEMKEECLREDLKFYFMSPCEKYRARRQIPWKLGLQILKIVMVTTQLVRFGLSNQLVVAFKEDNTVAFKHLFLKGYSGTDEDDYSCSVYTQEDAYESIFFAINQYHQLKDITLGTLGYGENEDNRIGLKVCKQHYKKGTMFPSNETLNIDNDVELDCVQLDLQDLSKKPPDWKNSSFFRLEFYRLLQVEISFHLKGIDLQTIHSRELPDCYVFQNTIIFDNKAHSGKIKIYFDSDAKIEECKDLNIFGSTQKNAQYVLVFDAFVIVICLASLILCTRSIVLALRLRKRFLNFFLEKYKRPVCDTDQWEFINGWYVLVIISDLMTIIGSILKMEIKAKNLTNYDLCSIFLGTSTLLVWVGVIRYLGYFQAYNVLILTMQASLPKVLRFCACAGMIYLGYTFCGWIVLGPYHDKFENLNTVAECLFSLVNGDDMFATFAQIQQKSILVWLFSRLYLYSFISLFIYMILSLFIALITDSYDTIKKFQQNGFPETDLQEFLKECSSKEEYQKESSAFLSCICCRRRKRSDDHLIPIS
The experiment in a line: Fluorescent TRPML2 assay (performed as for TRPML1, substituting the TRPML2 subtype). The method, boiled down:
as §1

Assay [3] concerns the target TRPML1 (Homo sapiens, UniProt Q9GZU1). Briefly: Fluorescent TRPML1 assay (Fluo4-AM calcium fluorescence in doxycycline-induced HEK-293 Trex cells). The method in brief:
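hTRPML1 (mutated for cell-surface expression) in HEK-293 Trex, dox 0.5 ug/mL o/n; Fluo4-AM 1 uM ~60 min, then ~60 min de-esterification, dark; modified Ringer's + 10 mM Ca. Cmpds 20 uM–6 nM final, half-log, n=3. Ex480/Em540; % activity vs ctrls; EC50 by nonlinear regression.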

TRPML1, sequence (Q9GZU1 whole entry L15A/L16A/L577A/L578A, form open): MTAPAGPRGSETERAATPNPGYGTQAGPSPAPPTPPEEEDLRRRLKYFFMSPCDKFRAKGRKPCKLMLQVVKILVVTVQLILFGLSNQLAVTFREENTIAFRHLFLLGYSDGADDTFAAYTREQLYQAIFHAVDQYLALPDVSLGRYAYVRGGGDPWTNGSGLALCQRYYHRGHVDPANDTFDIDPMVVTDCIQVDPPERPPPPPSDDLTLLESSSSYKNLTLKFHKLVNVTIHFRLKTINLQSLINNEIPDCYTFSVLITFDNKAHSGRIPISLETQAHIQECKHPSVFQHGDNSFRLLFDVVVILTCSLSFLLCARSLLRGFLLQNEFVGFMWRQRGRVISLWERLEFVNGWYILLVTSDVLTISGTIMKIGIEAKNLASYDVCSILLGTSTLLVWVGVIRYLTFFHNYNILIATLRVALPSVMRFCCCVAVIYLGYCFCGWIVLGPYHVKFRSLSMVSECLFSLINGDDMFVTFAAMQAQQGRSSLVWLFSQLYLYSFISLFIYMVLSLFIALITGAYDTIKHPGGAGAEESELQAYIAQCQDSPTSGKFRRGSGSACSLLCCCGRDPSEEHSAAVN

On to `C[C@@H]1CN(c2ncnc3c2c(N2CCCC2)cn3-c2cccc(OC(F)(F)F)c2)CCN1C(=O)OC(C)(C)C` [Compound 311, tert-butyl (R)-2-methyl-4-(5-(pyrrolidin-1-yl)-7-(3-(trifluoromethoxy)phenyl)-7H-pyrrolo[2,3-d]pyrimidin-4-yl)piperazine-1-carboxylate], for which the EC50 in assay [1], in assay [2] and in assay [3] was under 100 nM throughout.
Turning to `C[C@H]1CN(C(=O)OC(C)(C)C)CCN1c1ncnc2c1c(N1CCC[C@@H]1CO)cn2-c1cccc(Cl)c1` [Compound 312, tert-butyl (S)-4-(7-(3-chlorophenyl)-5-((R)-2-(hydroxymethyl)pyrrolidin-1-yl)-7H-pyrrolo[2,3-d]pyrimidin-4-yl)-3-methylpiperazine-1-carboxylate], the EC50 in assay [1] is under 100 nM; in assay [2] it was 500 to 2000 nM; in assay [3], 100 to 500 nM.
The matching figures for `C[C@@H]1CN(c2ncnc3c2c(N2CCCC2=O)cn3-c2cc(F)c(F)c(F)c2)CCN1C(=O)OC(C)(C)C` [Compound 313, tert-butyl (R)-2-methyl-4-(5-(2-oxopyrrolidin-1-yl)-7-(3,4,5-trifluorophenyl)-7H-pyrrolo[2,3-d]pyrimidin-4-yl)piperazine-1-carboxylate]: 500 to 2000 nM, over 2000 nM and over 2000 nM.
With `COc1cc(-n2cc(C3CC3)c3c(N4CCN(C(=O)OC(C)(C)C)C[C@@H]4C)ncnc32)ccc1F` [Compound 317, tert-butyl (S)-4-(5-cyclopropyl-7-(4-fluoro-3-methoxyphenyl)-7H-pyrrolo[2,3-d]pyrimidin-4-yl)-3-methylpiperazine-1-carboxylate], the results for the EC50 in assay [1], in assay [2] and in assay [3] were 100 to 500 nM, over 2000 nM and 500 to 2000 nM, respectively.
The matching figures for `C[C@H]1CN(C(=O)OC(C)(C)C(F)(F)F)CCN1c1ncnc2c1c(C1CC1)cn2-c1cc(C#N)ccn1` [Compound 318, 1,1,1-trifluoro-2-methylpropan-2-yl (S)-4-(7-(4-cyanopyridin-2-yl)-5-cyclopropyl-7H-pyrrolo[2,3-d]pyrimidin-4-yl)-3-methylpiperazine-1-carboxylate]: 100 to 500 nM, 500 to 2000 nM and under 100 nM.
For `Cc1nccnc1-c1cn(-c2cc(C#N)ccn2)c2ncnc(N3CCN(C(=O)OC(C)(C)C)C[C@@H]3C)c12` [Compound 319, tert-butyl (S)-4-(7-(4-cyanopyridin-2-yl)-5-(3-methylpyrazin-2-yl)-7H-pyrrolo[2,3-d]pyrimidin-4-yl)-3-methylpiperazine-1-carboxylate], in that order: 100 to 500 nM, 500 to 2000 nM and 500 to 2000 nM.
The matching figures for `C[C@H]1CN(C(=O)OC(C)(C)C)CCN1c1ncnc2c1c(-c1cnn(C)c1)cn2-c1cccc(OC(F)(F)F)c1` [Compound 321, tert-butyl (S)-3-methyl-4-(5-(1-methyl-1H-pyrazol-4-yl)-7-(3-(trifluoromethoxy)phenyl)-7H-pyrrolo[2,3-d]pyrimidin-4-yl)piperazine-1-carboxylate]: 500 to 2000 nM, over 2000 nM and 500 to 2000 nM.
As to `C[C@H]1CN(C(=O)OC(C)(C)C)CCN1c1ncnc2c1c(-n1cccn1)cn2-c1cccc(Cl)c1` [Compound 322, tert-butyl (S)-4-(7-(3-chlorophenyl)-5-(1H-pyrazol-1-yl)-7H-pyrrolo[2,3-d]pyrimidin-4-yl)-3-methylpiperazine-1-carboxylate], the figures for the EC50 in assay [1], in assay [2] and in assay [3] were under 100 nM, 500 to 2000 nM and 100 to 500 nM, respectively.
For `C[C@H]1CN(C(=O)OC(C)(C)C)CCN1c1ncnc2c1c(-n1ccnc1)cn2-c1cccc(Cl)c1` [Compound 323, tert-butyl (S)-4-(7-(3-chlorophenyl)-5-(1H-imidazol-1-yl)-7H-pyrrolo[2,3-d]pyrimidin-4-yl)-3-methylpiperazine-1-carboxylate], in that order: under 100 nM, over 2000 nM and 100 to 500 nM.
The matching figures for `C[C@H]1CN(C(=O)OC(C)(C)C)CCN1c1ncnc2c1c(N1CCOCC1)cn2-c1cccc(C#N)c1` [Compound 324, tert-butyl (S)-4-(7-(3-cyanophenyl)-5-morpholino-7H-pyrrolo[2,3-d]pyrimidin-4-yl)-3-methylpiperazine-1-carboxylate]: under 100 nM, 500 to 2000 nM and under 100 nM.
As for `C[C@H]1CN(C(=O)OC(C)(C)C(F)(F)F)CCN1c1ncnc2c1c(C1CC1)cn2C1CCCCC1` [Compound 325, 1,1,1-trifluoro-2-methylpropan-2-yl (S)-4-(7-cyclohexyl-5-cyclopropyl-7H-pyrrolo[2,3-d]pyrimidin-4-yl)-3-methylpiperazine-1-carboxylate], the values for the EC50 in assay [1], in assay [2] and in assay [3] were under 100 nM, 100 to 500 nM and 100 to 500 nM, respectively.
Consider `C[C@H]1CN(C(=O)OC(C)(C)C)CCN1c1ncnc2c1c(C1CC1)cn2C1CCCCC1` [Compound 326, tert-butyl (S)-4-(7-cyclohexyl-5-cyclopropyl-7H-pyrrolo[2,3-d]pyrimidin-4-yl)-3-methylpiperazine-1-carboxylate], for which the EC50 is under 100 nM in assay [1], over 2000 nM in assay [2] and 100 to 500 nM in assay [3].
`C[C@H]1CN(C(=O)OC(C)(C)C)CCN1c1ncnc2c1c(-c1cncnc1)cn2-c1cccc(Cl)c1` [Compound 327, tert-butyl (S)-4-(7-(3-chlorophenyl)-5-(pyrimidin-5-yl)-7H-pyrrolo[2,3-d]pyrimidin-4-yl)-3-methylpiperazine-1-carboxylate]: the values for the 50% effective concentration (EC50) in assay [1], in assay [2] and in assay [3] were under 100 nM, 500 to 2000 nM and 100 to 500 nM, respectively.
For `C[C@H]1CN(C(=O)OC(C)(C)C)CCN1c1ncnc2c1c(-c1cncnc1)cn2-c1cccc(C#N)c1` [Compound 328, tert-butyl (S)-4-(7-(3-cyanophenyl)-5-(pyrimidin-5-yl)-7H-pyrrolo[2,3-d]pyrimidin-4-yl)-3-methylpiperazine-1-carboxylate], the EC50 in assay [1] was 100 to 500 nM; in assay [2] it was over 2000 nM; in assay [3], 500 to 2000 nM.
For `C[C@H]1CN(C(=O)OC(C)(C)C(F)(F)F)CCN1c1ncnc2c1c(-c1cnn(C)c1)cn2-c1cccc(C#N)c1` [Compound 329, 1,1,1-trifluoro-2-methylpropan-2-yl (S)-4-(7-(3-cyanophenyl)-5-(1-methyl-1H-pyrazol-4-yl)-7H-pyrrolo[2,3-d]pyrimidin-4-yl)-3-methylpiperazine-1-carboxylate], in that order: 100 to 500 nM, over 2000 nM and 500 to 2000 nM.
The matching figures for `C[C@H]1CN(C(=O)OC(C)(C)C(F)(F)F)CCN1c1ncnc2c1c(-c1cnn(C)c1)cn2-c1cc(C#N)ccn1` [Compound 330, 1,1,1-trifluoro-2-methylpropan-2-yl (S)-4-(7-(4-cyanopyridin-2-yl)-5-(1-methyl-1H-pyrazol-4-yl)-7H-pyrrolo[2,3-d]pyrimidin-4-yl)-3-methylpiperazine-1-carboxylate]: under 100 nM, 100 to 500 nM and under 100 nM.
Take `C[C@H]1CN(C(=O)OC(C)(C)C)CCN1c1ncnc2c1c(N1CCCC1)cn2-c1cccc(OC(F)(F)F)c1` [Compound 331, tert-butyl (S)-3-methyl-4-(5-(pyrrolidin-1-yl)-7-(3-(trifluoromethoxy)phenyl)-7H-pyrrolo[2,3-d]pyrimidin-4-yl)piperazine-1-carboxylate]: the half-maximal effective concentration (EC50) in assay [1], in assay [2] and in assay [3] was under 100 nM throughout.
As to `C[C@@H]1CN(c2ncnc3c2c(-n2cccn2)cn3-c2cccc(Cl)c2)CCN1C(=O)OC(C)(C)C` [Compound 332, tert-butyl (R)-4-(7-(3-chlorophenyl)-5-(1H-pyrazol-1-yl)-7H-pyrrolo[2,3-d]pyrimidin-4-yl)-2-methylpiperazine-1-carboxylate], the EC50 in assay [1] was under 100 nM; in assay [2], 500 to 2000 nM; in assay [3], under 100 nM.
